Experimental findings from ChEMBL document CHEMBL3751776, “Expanding the structural diversity of diarylureas as multi-target tyrosine kinase inhibitors” (Bioorg Med Chem, 2016) are described below.

pIC50: −log10 of the molar value.

The pIC50 is the negative decadic logarithm of the IC50, by convention in mol/L.

Test [1] is described as follows: Antiproliferative activity against human SMMC7721 cells assessed as growth inhibition after 48 hrs by MTT assay. The conditions noted are these: SMMC-7721, 48 h. The class given is functional, cell-based. A general note: Tetrazolium assays rely on reduction of a dye to a coloured formazan, in cell work by metabolically active cells.
The target of test [2] is Vascular endothelial growth factor receptor 2 (Homo sapiens, UniProt P35968). In words: Inhibition of KDR (unknown origin) incubated for 1 hr assessed as luminescence changes using ATP by ADP-Glo Kinase assay. (ADP-Glo first removes unused ATP, then detects ADP through luciferase.)
For test [3], the target named is Epidermal growth factor receptor (Homo sapiens, UniProt P00533). In words: Inhibition of EGFR (unknown origin) incubated for 1 hr assessed as luminescence changes using ATP by ADP-Glo Kinase assay.
Test [4] addresses Fibroblast growth factor receptor 1 (Homo sapiens, UniProt P11362). The test can be described thus: Inhibition of FGFR1 (unknown origin) incubated for 1 hr assessed as luminescence changes using ATP by ADP-Glo Kinase assay.
The subject of a further test is A549. In words: Antiproliferative activity against human A549 cells assessed as growth inhibition after 48 hrs by MTT assay. The class given is functional, cell-based. The conditions noted are these: A549, 48 h.

Fibroblast growth factor receptor 1, sequence (P11362 whole entry): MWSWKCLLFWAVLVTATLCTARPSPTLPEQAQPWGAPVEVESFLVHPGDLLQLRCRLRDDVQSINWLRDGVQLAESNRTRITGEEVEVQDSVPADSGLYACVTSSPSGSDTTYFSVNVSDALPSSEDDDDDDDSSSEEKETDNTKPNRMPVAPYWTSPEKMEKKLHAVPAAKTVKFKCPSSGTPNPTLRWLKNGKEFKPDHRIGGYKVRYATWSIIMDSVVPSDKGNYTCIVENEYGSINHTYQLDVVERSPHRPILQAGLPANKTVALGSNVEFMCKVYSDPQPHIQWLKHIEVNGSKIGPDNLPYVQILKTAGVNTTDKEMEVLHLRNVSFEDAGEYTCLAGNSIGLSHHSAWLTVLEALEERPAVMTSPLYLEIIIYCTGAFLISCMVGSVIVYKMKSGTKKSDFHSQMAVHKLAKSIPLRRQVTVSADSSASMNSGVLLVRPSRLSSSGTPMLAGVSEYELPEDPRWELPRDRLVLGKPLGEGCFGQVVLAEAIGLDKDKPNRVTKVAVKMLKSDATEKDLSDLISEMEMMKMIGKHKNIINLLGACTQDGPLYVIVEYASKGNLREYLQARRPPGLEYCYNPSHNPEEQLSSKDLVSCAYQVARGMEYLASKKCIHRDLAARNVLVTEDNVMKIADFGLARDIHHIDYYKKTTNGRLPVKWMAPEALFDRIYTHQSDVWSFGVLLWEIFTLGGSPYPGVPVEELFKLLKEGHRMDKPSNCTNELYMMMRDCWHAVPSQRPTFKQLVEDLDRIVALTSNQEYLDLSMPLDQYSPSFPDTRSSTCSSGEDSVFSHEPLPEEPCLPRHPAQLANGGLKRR
Epidermal growth factor receptor, sequence (P00533 whole entry): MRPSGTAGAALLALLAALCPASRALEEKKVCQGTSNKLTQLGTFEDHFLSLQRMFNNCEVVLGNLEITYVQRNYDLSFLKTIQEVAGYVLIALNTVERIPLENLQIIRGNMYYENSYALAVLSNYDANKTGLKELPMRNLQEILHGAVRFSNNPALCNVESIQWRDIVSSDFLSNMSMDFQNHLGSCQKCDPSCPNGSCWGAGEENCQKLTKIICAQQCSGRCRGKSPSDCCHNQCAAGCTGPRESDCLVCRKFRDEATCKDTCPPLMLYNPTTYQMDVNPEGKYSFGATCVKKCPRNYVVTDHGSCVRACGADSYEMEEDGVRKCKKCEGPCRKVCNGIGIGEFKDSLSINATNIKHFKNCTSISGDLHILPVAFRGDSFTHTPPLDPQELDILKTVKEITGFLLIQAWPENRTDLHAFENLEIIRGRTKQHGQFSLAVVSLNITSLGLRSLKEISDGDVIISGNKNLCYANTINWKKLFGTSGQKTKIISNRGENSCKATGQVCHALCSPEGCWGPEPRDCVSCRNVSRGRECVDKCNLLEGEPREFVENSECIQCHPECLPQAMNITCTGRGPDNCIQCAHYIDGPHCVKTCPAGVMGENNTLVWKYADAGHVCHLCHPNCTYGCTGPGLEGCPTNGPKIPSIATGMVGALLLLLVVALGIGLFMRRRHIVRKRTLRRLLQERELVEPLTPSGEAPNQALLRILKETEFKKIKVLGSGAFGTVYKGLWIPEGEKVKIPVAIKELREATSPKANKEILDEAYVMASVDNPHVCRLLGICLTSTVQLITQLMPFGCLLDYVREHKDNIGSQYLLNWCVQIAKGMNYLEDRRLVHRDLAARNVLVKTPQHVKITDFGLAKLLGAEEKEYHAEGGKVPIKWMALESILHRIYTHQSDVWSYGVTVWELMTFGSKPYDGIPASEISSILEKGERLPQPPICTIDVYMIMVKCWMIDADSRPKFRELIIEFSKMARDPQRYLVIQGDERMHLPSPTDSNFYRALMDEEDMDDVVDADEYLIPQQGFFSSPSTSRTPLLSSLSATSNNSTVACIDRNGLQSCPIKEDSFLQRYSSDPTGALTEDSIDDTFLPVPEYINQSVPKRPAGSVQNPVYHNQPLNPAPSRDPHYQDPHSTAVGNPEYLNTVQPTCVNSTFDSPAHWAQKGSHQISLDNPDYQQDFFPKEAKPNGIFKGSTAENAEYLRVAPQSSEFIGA
Vascular endothelial growth factor receptor 2, sequence (P35968 whole entry): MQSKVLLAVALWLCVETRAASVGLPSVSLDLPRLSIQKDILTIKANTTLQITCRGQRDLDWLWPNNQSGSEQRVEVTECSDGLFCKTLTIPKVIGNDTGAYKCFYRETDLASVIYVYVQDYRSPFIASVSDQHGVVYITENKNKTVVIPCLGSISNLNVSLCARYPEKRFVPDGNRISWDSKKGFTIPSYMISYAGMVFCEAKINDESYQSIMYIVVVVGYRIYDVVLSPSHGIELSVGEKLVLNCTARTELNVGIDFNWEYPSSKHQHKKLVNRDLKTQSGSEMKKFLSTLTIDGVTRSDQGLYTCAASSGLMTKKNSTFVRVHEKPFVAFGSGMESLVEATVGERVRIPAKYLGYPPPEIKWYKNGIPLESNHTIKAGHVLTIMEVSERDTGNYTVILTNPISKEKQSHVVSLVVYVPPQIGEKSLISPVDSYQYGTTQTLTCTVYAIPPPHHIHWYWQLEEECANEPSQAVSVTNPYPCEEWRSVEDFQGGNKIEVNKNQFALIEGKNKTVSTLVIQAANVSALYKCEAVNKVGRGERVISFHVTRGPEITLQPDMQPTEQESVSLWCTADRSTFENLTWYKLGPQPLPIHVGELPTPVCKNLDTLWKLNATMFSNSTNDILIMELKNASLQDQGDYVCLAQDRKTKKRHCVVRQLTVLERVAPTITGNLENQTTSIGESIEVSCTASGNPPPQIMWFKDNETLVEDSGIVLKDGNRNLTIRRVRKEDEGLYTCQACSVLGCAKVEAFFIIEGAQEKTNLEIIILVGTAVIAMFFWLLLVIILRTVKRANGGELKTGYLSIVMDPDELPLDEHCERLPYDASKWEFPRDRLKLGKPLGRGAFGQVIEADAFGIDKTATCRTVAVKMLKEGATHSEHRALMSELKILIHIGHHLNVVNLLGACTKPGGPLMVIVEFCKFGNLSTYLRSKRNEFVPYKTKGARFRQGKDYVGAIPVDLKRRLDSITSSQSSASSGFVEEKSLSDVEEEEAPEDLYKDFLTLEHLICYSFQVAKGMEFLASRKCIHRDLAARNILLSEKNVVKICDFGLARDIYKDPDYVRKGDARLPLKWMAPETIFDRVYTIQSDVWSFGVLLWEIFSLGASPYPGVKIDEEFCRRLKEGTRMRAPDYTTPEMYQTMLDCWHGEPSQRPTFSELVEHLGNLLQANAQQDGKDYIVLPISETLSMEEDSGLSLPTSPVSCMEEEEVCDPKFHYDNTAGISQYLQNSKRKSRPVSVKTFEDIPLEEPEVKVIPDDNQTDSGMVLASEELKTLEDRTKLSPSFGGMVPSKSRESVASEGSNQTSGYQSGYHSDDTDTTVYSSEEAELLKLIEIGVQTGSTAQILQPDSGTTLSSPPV

Take `COc1ccc(-c2cc(NC(=O)Nc3nccs3)cc(C(F)(F)F)c2)cn1`: the pIC50 in test [1] is 4.44; in test [2], < 6.30; in test [3] it was 6.32; in test [4] it was < 6.30.

As for `O=C(Nc1ccncc1)Nc1cc(-c2cncnc2)cc(C(F)(F)F)c1`, the pIC50 was 5.62 with A549; 5.43 in test [1]; 7.67 in test [2]; 7.83 in test [3]; 7.55 in test [4].

On to `COc1cc(NC(=O)Nc2ccccn2)cc(-c2cccnc2)c1OC`, for which the pIC50 with A549 is 4.87; in test [1], 4.65; in test [2] it was < 6.30; in test [3] it was 7.31; in test [4], 7.16.

In the case of `COc1cc(NC(=O)Nc2nccs2)cc(-c2cn(C)cn2)c1OC`, the pIC50 in test [2] is 6.38; in test [3], 6.44; in test [4], < 6.30.

Regarding `O=C(Nc1nccs1)Nc1cc(-c2cncnc2)ccc1OC(F)(F)F`, the pIC50 in the test on A549 was 4.76; in test [1], 5.03; in test [2], 7.16; in test [3] it was 7.14; in test [4], 6.81.

Consider `O=C(Nc1ccncc1)Nc1cc(-c2cncnc2)ccc1OC(F)(F)F`, for which the pIC50 in the test with A549 is 5.43; in test [1], 5.40; in test [2] it was 7.65; in test [3], 7.74; in test [4] it was 7.49.

For `O=C(Nc1ccncc1)Nc1cc(-c2cccnc2)cc(C(F)(F)F)c1`, the pIC50 with A549 was < 3.52; in test [2] it was 7.03; in test [3] it was 6.72; in test [4], 6.86.

`Cn1cnc(-c2ccc(OC(F)(F)F)c(NC(=O)Nc3ccncc3)c2)c1`: the pIC50 was 4.10 with A549; < 3.52 in test [1]; 6.45 in test [2]; 7.02 in test [3]; 6.43 in test [4].

With `COc1ccc(-c2ccc(OC(F)(F)F)c(NC(=O)Nc3ccccn3)c2)cn1`, the pIC50 with A549 is 3.75; in test [1] it was 4.04; in test [2], < 6.30; in test [3], < 6.30; in test [4] it was < 6.30.

As for `Cn1cnc(-c2cc(NC(=O)Nc3nccs3)cc(C(F)(F)F)c2)c1`, the pIC50 in the test on A549 was 3.79; in test [2], 6.54; in test [3], 6.51; in test [4] it was < 6.30.

`O=C(Nc1cc(-c2cccnc2)cc(C(F)(F)F)c1)Nc1nccs1`: the pIC50 with A549 is 4.04; in test [1], 4.17; in test [2], 7.24; in test [3] it was 7.11; in test [4], 7.00.

For `COc1ccc(-c2ccc(OC(F)(F)F)c(NC(=O)Nc3nccs3)c2)cn1`, the pIC50 in the test on A549 was 4.46; in test [1] it was 4.36; in test [2], 6.41; in test [3], 6.31; in test [4], < 6.30.

Turning to `O=C(Nc1ccccn1)Nc1cc(-c2cccnc2)ccc1OC(F)(F)F`, the pIC50 is 4.72 in the test on A549, 4.45 in test [1], 7.06 in test [2] and 6.89 in test [4].

For `COc1ccc(-c2cc(NC(=O)Nc3ccncc3)cc(OC)c2OC)cn1`, the pIC50 is < 6.30 in test [2], 6.34 in test [3] and < 6.30 in test [4].

As for `COc1cc(NC(=O)Nc2ccccn2)cc(-c2c[nH]cn2)c1OC`, the pIC50 with A549 was 4.85; in test [1] it was 4.67; in test [2] it was 7.48; in test [3] it was 7.61; in test [4] it was 7.25.

As for `COc1ccc(-c2ccc(OC(F)(F)F)c(NC(=O)Nc3ccncc3)c2)cn1`, the pIC50 was < 3.52 in the test with A549, < 6.30 in test [2], 6.99 in test [3] and 7.00 in test [4].

For the compound `O=C(Nc1nccs1)Nc1cc(-c2cccnc2)ccc1OC(F)(F)F`, the pIC50 is 4.90 in test [1], 6.97 in test [2], 6.92 in test [3] and 7.02 in test [4].

As for `COc1cc(NC(=O)Nc2ccncc2)cc(-c2cccnc2)c1OC`, the pIC50 was 4.13 in test [1], 6.67 in test [2], 6.88 in test [3] and 6.57 in test [4].

Regarding `O=C(Nc1ccncc1)Nc1cc(-c2cccnc2)ccc1OC(F)(F)F`, the pIC50 in the test on A549 is 4.40; in test [1], 4.37; in test [2] it was 6.89; in test [3], 7.01; in test [4], 6.98.

With `COc1ccc(-c2cc(NC(=O)Nc3ccncc3)cc(C(F)(F)F)c2)cn1`, the pIC50 was 3.56 with A549; < 3.52 in test [1]; 6.44 in test [2]; < 6.30 in test [3]; < 6.30 in test [4].

Consider `O=C(Nc1ccccn1)Nc1cc(-c2cncnc2)ccc1OC(F)(F)F`, for which the pIC50 in the test on A549 is 4.82; in test [1] it was 4.67; in test [2], 7.28; in test [3], 7.58; in test [4], 7.09.

For the compound `Cn1cnc(-c2cc(NC(=O)Nc3ccncc3)cc(C(F)(F)F)c2)c1`, the pIC50 is 4.40 in the test with A549; 3.63 in test [1]; 6.65 in test [2]; 6.78 in test [3]; 6.58 in test [4].

As for `O=C(Nc1cc(-c2cncnc2)cc(C(F)(F)F)c1)Nc1nccs1`, the pIC50 with A549 was 4.74; in test [1], 4.53; in test [2], 7.06; in test [3], 7.14; in test [4] it was < 6.30.

Consider `COc1cc(NC(=O)Nc2nccs2)cc(-c2cccnc2)c1OC`, for which the pIC50 in the test with A549 was 3.97; in test [2] it was 6.54; in test [3], 6.50; in test [4], 6.48.

As to `COc1cc(NC(=O)Nc2ccncc2)cc(-c2cncnc2)c1OC`, the pIC50 is 4.76 in the test with A549; 4.89 in test [1]; 6.31 in test [2]; 6.54 in test [3]; < 6.30 in test [4].

For the compound `COc1ccc(-c2cc(NC(=O)Nc3ccccn3)cc(OC)c2OC)cn1`, the pIC50 was 4.61 in the test with A549; 4.48 in test [1]; 7.10 in test [2]; 7.18 in test [3]; < 6.30 in test [4].

Consider `CNC(=O)c1cc(Oc2ccc(NC(=O)Nc3ccc(Cl)c(C(F)(F)F)c3)cc2)ccn1` [SORAFENIB], for which the pIC50 in the test on A549 was 5.69; in test [1], 5.80.
